Holding throughout (test): Glasshouse assay for herbicidal activity (pre- and post-emergence), percentage phytotoxicity
What all share (assay type): in vivo

Assay [1] concerns Avena fatua (AVEFA). The note with it: Avena fatua. Put shortly: (§1)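 Pot-grown, standard soil. PRE: spray 1 d post-sowing; POST: ~12 d. Glasshouse 24/18 °C (warm spp.) / 20/16 °C (cool spp.), 16 h light, 65% RH, watered 2×/day. Visual % damage, 20 DAA PRE, 15 DAA POST.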
The test system of assay [2] is Echinochloa crus-galli (ECHCG). The note with it: Echinochloa crus-galli. Put shortly:
as §1

Assay [3] deals with Lolium perenne (LOLPE). The note with it: Lolium perenne. Put shortly:
as §1

Assay [4] relates to Alopecurus myosuroides (ALOMY). Particulars: Alopecurus myosuroides. Put shortly: as §1
Setting [5] is: post-emergence, 360 h, post-emergence, 250 g/ha, 15 DAA, visual score (100%=total damage; 0%=no damage), read-out: AVEFA POST herbicidal activity (percentage phytotoxicity).
Where [6] appears, read: pre-emergence, 480 h, pre-emergence, 250 g/ha, 20 DAA, visual score (100%=total damage; 0%=no damage), read-out: AVEFA PRE herbicidal activity (percentage phytotoxicity).
[7] abbreviates: post-emergence, 360 h, post-emergence, 250 g/ha, 15 DAA, visual score (100%=total damage; 0%=no damage), read-out: ECHCG POST herbicidal activity (percentage phytotoxicity).
[8] abbreviates: pre-emergence, 480 h, pre-emergence, 250 g/ha, 20 DAA, visual score (100%=total damage; 0%=no damage), read-out: ECHCG PRE herbicidal activity (percentage phytotoxicity).
[9] abbreviates: post-emergence, 360 h, post-emergence, 250 g/ha, 15 DAA, visual score (100%=total damage; 0%=no damage), read-out: LOLPE POST herbicidal activity (percentage phytotoxicity).
Setting [10] is: pre-emergence, 480 h, pre-emergence, 250 g/ha, 20 DAA, visual score (100%=total damage; 0%=no damage), read-out: LOLPE PRE herbicidal activity (percentage phytotoxicity).
The mark [11] stands for this setting: post-emergence, 360 h, post-emergence, 250 g/ha, 15 DAA, visual score (100%=total damage; 0%=no damage), read-out: ALOMY POST herbicidal activity (percentage phytotoxicity).
Setting [12] is: pre-emergence, 480 h, pre-emergence, 250 g/ha, 20 DAA, visual score (100%=total damage; 0%=no damage), read-out: ALOMY PRE herbicidal activity (percentage phytotoxicity).
Setting [13] is: post-emergence, 360 h, Rate 250 g/ha, post-emergence, visual assessment 15 DAA, 100%=total damage, 0%=no damage, read-out: Post-emergence herbicidal activity (percentage phytotoxicity) AVEFA POST.
Where [14] appears, read: pre-emergence, 480 h, Rate 250 g/ha, pre-emergence, visual assessment 20 DAA, 100%=total damage, 0%=no damage, read-out: Pre-emergence herbicidal activity (percentage phytotoxicity) AVEFA PRE.
[15] abbreviates: post-emergence, 360 h, Rate 250 g/ha, post-emergence, visual assessment 15 DAA, 100%=total damage, 0%=no damage, read-out: Post-emergence herbicidal activity (percentage phytotoxicity) ECHCG POST.
Where [16] appears, read: pre-emergence, 480 h, Rate 250 g/ha, pre-emergence, visual assessment 20 DAA, 100%=total damage, 0%=no damage, read-out: Pre-emergence herbicidal activity (percentage phytotoxicity) ECHCG PRE.
The mark [17] stands for this setting: post-emergence, 360 h, Rate 250 g/ha, post-emergence, visual assessment 15 DAA, 100%=total damage, 0%=no damage, read-out: Post-emergence herbicidal activity (percentage phytotoxicity) LOLPE POST.
The mark [18] stands for this setting: pre-emergence, 480 h, Rate 250 g/ha, pre-emergence, visual assessment 20 DAA, 100%=total damage, 0%=no damage, read-out: Pre-emergence herbicidal activity (percentage phytotoxicity) LOLPE PRE.
Setting [19] is: post-emergence, 360 h, Rate 250 g/ha, post-emergence, visual assessment 15 DAA, 100%=total damage, 0%=no damage, read-out: Post-emergence herbicidal activity (percentage phytotoxicity) ALOMY POST.
[20] abbreviates: pre-emergence, 480 h, Rate 250 g/ha, pre-emergence, visual assessment 20 DAA, 100%=total damage, 0%=no damage, read-out: Pre-emergence herbicidal activity (percentage phytotoxicity) ALOMY PRE.

Each structure is given as a SMILES string. Read-outs that look alike come from different tables or passages of the source.

As for `COc1ccc(C(=O)OC2=C(c3c(C)cc(-c4ncc(Cl)cn4)cc3C)C(=O)C(CC(=O)NC(C)(C)C)C2)cc1` (stereo not shown) [Compound P1, [4-[2-(tert-butylamino)-2-oxo-ethyl]-2-[4-(5-chloropyrimidin-2-yl)-2,6-dimethyl-phenyl]-3-oxo-cyclopenten-1-yl] 4-methoxybenzoate], the pest or weed control at 250 g/ha in assay [1] (setting [5]), in assay [1] (setting [6]), in assay [2] (setting [7]), in assay [2] (setting [8]), in assay [3] (setting [9]) and in assay [3] (setting [10]) was 100% throughout. Also, the pest or weed control at 250 g/ha in assay [4] (setting [11]) and in assay [4] (setting [12]) was 100% in each case.
In the case of `Cc1cc(-c2ncc(Cl)cn2)cc(C)c1C1=C(OC(=O)c2ccc(F)cc2)CC(CC(=O)NC(C)(C)C)C1=O` (stereo not shown) [Compound P2], the pest or weed control at 250 g/ha in assay [1] (setting [5]) was 100%; in assay [1] (setting [6]), 90%; in assay [2] (setting [7]) it was 100%; in assay [2] (setting [8]), 100%; in assay [3] (setting [9]), 100%; in assay [3] (setting [10]), 100%. Also, the pest or weed control at 250 g/ha in assay [4] (setting [11]) was determined as 100%; in assay [4] (setting [12]), 90%.
For `Cc1cc(-c2ncc(Cl)cn2)cc(C)c1C1=C(OC(=O)C(C)(C)C)CC(CC(=O)NC(C)(C)C)C1=O` (stereo not shown) [Compound P3], the pest or weed control at 250 g/ha was found to be 90% in assay [1] (setting [5]); 80% in assay [1] (setting [6]); 100% in assay [2] (setting [7]); 100% in assay [2] (setting [8]); 100% in assay [3] (setting [9]); 100% in assay [3] (setting [10]). For the same molecule, the pest or weed control at 250 g/ha in assay [4] (setting [11]) and in assay [4] (setting [12]) was 100% in each case.
`CCOC(=O)OC1=C(c2c(C)cc(-c3ncc(Cl)cn3)cc2C)C(=O)C(CC(=O)NC(C)(C)C)C1` (stereo not shown) [Compound P4]: the pest or weed control at 250 g/ha in assay [1] (setting [5]) was 100%; in assay [1] (setting [6]) it was 90%; in assay [2] (setting [7]), 100%; in assay [2] (setting [8]), 100%; in assay [3] (setting [9]) it was 100%; in assay [3] (setting [10]), 100%. Besides, the pest or weed control at 250 g/ha in assay [4] (setting [11]) and in assay [4] (setting [12]) was 90% in each case.
For the molecule `CCSC(=O)OC1=C(c2c(C)cc(-c3ncc(Cl)cn3)cc2C)C(=O)C(CC(=O)NC(C)(C)C)C1` (stereo not shown) [Compound P5], the pest or weed control at 250 g/ha in assay [1] (setting [5]) turned out to be 100%; in assay [1] (setting [6]), 90%; in assay [2] (setting [7]) it was 100%; in assay [2] (setting [8]), 100%; in assay [3] (setting [9]) it was 100%; in assay [3] (setting [10]) it was 100%. Moreover, the pest or weed control at 250 g/ha in assay [4] (setting [11]) and in assay [4] (setting [12]) was 100% in each case.
Take `CCOCOC1=C(c2c(C)cc(-c3ncc(Cl)cn3)cc2C)C(=O)C(CC(=O)NC(C)(C)C)C1` (stereo not shown) [Compound P6]: the pest or weed control at 250 g/ha is 90% in assay [1] (setting [13]); 100% in assay [1] (setting [14]); 100% in assay [2] (setting [15]); 100% in assay [2] (setting [16]); 100% in assay [3] (setting [17]); 100% in assay [3] (setting [18]). The pest or weed control at 250 g/ha in assay [4] (setting [19]) and in assay [4] (setting [20]) was 100% throughout.
On to `Cc1cc(-c2ncc(Cl)cn2)cc(C)c1C1=C(OC(=O)N2CCCC2)C(CC(=O)NC(C)(C)C)CC1=O` (stereo not shown) [Compound P7], for which the pest or weed control at 250 g/ha in assay [1] (setting [13]) worked out at 60%; in assay [1] (setting [14]), 10%; in assay [2] (setting [15]) it was 80%; in assay [2] (setting [16]) it was 50%; in assay [3] (setting [17]), 40%; in assay [3] (setting [18]), 30%. For the same molecule, the results for the pest or weed control at 250 g/ha in assay [4] (setting [19]) and in assay [4] (setting [20]) were 70% and 0%, respectively.
For the molecule `Cc1cc(-c2ncc(Cl)cn2)cc(C)c1C1=C(OC(=O)N2CCCC2)CC(CC(=O)NC(C)(C)C)C1=O` (stereo not shown) [Compound P8], the pest or weed control at 250 g/ha in assay [1] (setting [13]) came to 80%; in assay [1] (setting [14]) it was 10%; in assay [2] (setting [15]), 90%; in assay [2] (setting [16]) it was 70%; in assay [3] (setting [17]), 70%; in assay [3] (setting [18]), 50%. Moreover, the pest or weed control at 250 g/ha in assay [4] (setting [19]) worked out at 70%; in assay [4] (setting [20]), 30%.
In the case of `COCCCN(C(=O)CC1CC(OC(=O)C(C)(C)C)=C(c2c(C)cc(C)cc2C)C1=O)C(=O)C(C)(C)C` (stereo not shown) [Compound P9], the pest or weed control at 250 g/ha in assay [1] (setting [13]) amounted to 80%; in assay [1] (setting [14]), 60%; in assay [2] (setting [15]) it was 80%; in assay [2] (setting [16]), 90%; in assay [3] (setting [17]) it was 80%; in assay [3] (setting [18]) it was 90%. In addition, the pest or weed control at 250 g/ha in assay [4] (setting [19]) came out at 80%; in assay [4] (setting [20]), 90%.
In the case of `COCCCNC(=O)CC1CC(OC(=O)C(C)(C)C)=C(c2c(C)cc(C)cc2C)C1=O` (stereo not shown) [Compound P10], the pest or weed control at 250 g/ha came to 90% in assay [1] (setting [13]); 60% in assay [1] (setting [14]); 90% in assay [2] (setting [15]); 90% in assay [2] (setting [16]); 90% in assay [3] (setting [17]); 90% in assay [3] (setting [18]). The pest or weed control at 250 g/ha in assay [4] (setting [19]) and in assay [4] (setting [20]) was 90% in each case.
Turning to `Cc1cc(C)c(C2=C(OC(=O)C(C)(C)C)CC(CC(N)=O)C2=O)c(C)c1` (stereo not shown) [Compound P11], the pest or weed control at 250 g/ha stood at 90% in assay [1] (setting [13]); 30% in assay [1] (setting [14]); 90% in assay [2] (setting [15]); 90% in assay [2] (setting [16]); 90% in assay [3] (setting [17]); 80% in assay [3] (setting [18]). Besides, the pest or weed control at 250 g/ha amounted to 80% in assay [4] (setting [19]) and 70% in assay [4] (setting [20]).
For `Cc1cc(C)c(C2=C(OC(=O)C(C)(C)C)CC(CC(=O)N(C(=O)C(C)(C)C)C3COC3)C2=O)c(C)c1` (stereo not shown) [Compound P12], the pest or weed control at 250 g/ha stood at 60% in assay [1] (setting [13]); 0% in assay [1] (setting [14]); 60% in assay [2] (setting [15]); 70% in assay [2] (setting [16]); 80% in assay [3] (setting [17]); 60% in assay [3] (setting [18]). For the same molecule, the values for the pest or weed control at 250 g/ha in assay [4] (setting [19]) and in assay [4] (setting [20]) were 80% and 20%, respectively.
Consider `Cc1cc(C)c(C2=C(OC(=O)C(C)(C)C)CC(CC(=O)NC3COC3)C2=O)c(C)c1` (stereo not shown) [Compound P13], for which the pest or weed control at 250 g/ha was found to be 70% in assay [1] (setting [13]); 10% in assay [1] (setting [14]); 80% in assay [2] (setting [15]); 20% in assay [2] (setting [16]); 70% in assay [3] (setting [17]); 10% in assay [3] (setting [18]). The pest or weed control at 250 g/ha in assay [4] (setting [19]) amounted to 80%; in assay [4] (setting [20]), 50%.
Consider `Cc1cc(C)c(C2=C(OC(=O)C(C)(C)C)CC(CC(=O)N(C(=O)C(C)(C)C)C3(C)COC3)C2=O)c(C)c1` (stereo not shown) [Compound P14], for which the pest or weed control at 250 g/ha in assay [1] (setting [13]) stood at 80%; in assay [1] (setting [14]) it was 10%; in assay [2] (setting [15]), 70%; in assay [2] (setting [16]), 70%; in assay [3] (setting [17]) it was 80%; in assay [3] (setting [18]) it was 70%. Besides, the pest or weed control at 250 g/ha is 80% in assay [4] (setting [19]) and 70% in assay [4] (setting [20]).

The values are drawn from patent US10206394B2, “Herbicidal compounds” (Syngenta Participations AG, priority 2014, dated 2019).
